How the values were obtained:
Assay type in all cases: in vivo
[1] = test system: SS mice; test: Organic indexes (spleen, submaxillary gland, thymus) in SS mice
Description: 2 Sjögren's syndrome model mice: C57BL/6 female mice housed in a SPF environment with successful modeling (The animal model was made via repeated multi-point intracutaneous injection of submaxillary gland homogenate of homologous mice to tail and back of mice). The animal model was made via repeated multi-point intracutaneously injection of submaxillary gland homogenate of homologous mice to tail and back of mice, and the mice with successful modeling were randomly assigned to each group according to comprehensive conditions of mice. At the same time, the average weight and status of each group of mice should be as close as possible. Paeoniflorin-6′-O-benzenesulfonate, white crystalline powder, purity 98.5%, was dissolved in trace ethanol (75 mg of CP-25 was soluble in 40 μl of ethanol), and then sodium carboxymethylcellulose was added to formulate a suspension of CP-25. Corresponding dose gradient, low dose (17.5 mg/kg), medium dose (35 mg/kg) and high dose (70 mg/kg) of said pharmaceutical should be prepared before medication, stored in 4° C. refrigerator for use. High dose of said pharmaceutical should be incubated for half an hour before use.

[2] = test system: spleen CD4+ IL-17A+ T lymphocytes; test: Spleen CD4+ IL-17A+ T lymphocytes in NOD model mice (FIG. 13)
Description: FIG. 13 Effects of CP-25 on spleen CD4^+ IL-17A^+ T lymphocytes in NOD model mice.

[3] = test system: Sjögren's syndrome model mice (C57BL/6 female mice); test: Saliva amount in induced Sjögren's syndrome model mice (wet weight method after pilocarpine); settings: for Saliva amount in SS mice, One week after administration / Saliva amount in SS mice, Two weeks after administration / Saliva amount in SS mice, Pre-administration: Example 1, C57BL/6 SS mice; for Saliva amount in SS mice, Pre-administration / Saliva amount, Pre-administration: baseline before administration; for Saliva amount, One week after: one week of administration; for Saliva amount, Two weeks after: two weeks of administration
Procedure: […] Water intake, saliva amount and submaxillary gland pathological analysis and score were determined respectively, on the day before administration, the 7th day and 14th day after administration. The therapeutic effects of CP-25 on Sjögren's syndrome were evaluated by comparison of changes of each index before and after treatment. 2 Sjögren's syndrome model mice: C57BL/6 female mice housed in a SPF environment with successful modeling (The animal model was made via repeated multi-point intracutaneous injection of submaxillary gland homogenate of homologous mice to tail and back of mice). The animal model was made via repeated multi-point intracutaneously injection of submaxillary gland homogenate of homologous mice to tail and back of mice, and the mice with successful modeling were randomly assigned to each group according to comprehensive conditions of mice. At the same time, the average weight and status of each group of mice should be as close as possible. […] […] High dose of said pharmaceutical should be incubated for half an hour before use. Before measurement, mice were anesthetized via intraperitoneal injection of 0.05 ml of 2.4% pentobarbital sodium, and the satisfactory anesthesia was smooth breathing, corneal reflex disappearance and limb muscle relaxation. After complete anesthesia, a mouse was placed in slightly tilted trendelenburg position, and its body was kept warm using the heater. The mouse was injected intraperitoneally with 0.1 ml of 0.025 mg/ml Pilocarpine, and 5 min later, a weighed cotton ball was placed in the mouth of the mouse for 10 min. After taking the ball out, the saliva weight of mice was measured by the wet weight method.

[4] = test system: spleen CD4+ IL-17A+ T lymphocytes; test: Spleen CD4+ IL-17A+ T lymphocytes in SS model mice (FIG. 4)
Description: FIG. 4 Effects of CP-25 on spleen CD4^+ IL-17A^+ T lymphocytes in SS model mice.

[5] = SS model mice, 17.5 mg/kg by gavage
[6] = SS model mice, 35 mg/kg by gavage

C[C@@]12C[C@@]3(O)O[C@H](O1)C1(COC(=O)c4ccccc4)[C@@H]3CC12OC1OC(COS(=O)(=O)c2ccccc2)C(O)C(O)C1O (stereo partly shown) [CP-25, Paeoniflorin-6′-O-benzenesulfonate]
Spleen index ([1]; 17.5 mg/kg): 9.00 ± 1.61 mg/g | Submaxillary gland index ([1]; 17.5 mg/kg): 3.56 ± 0.62 mg/g | Thymus index ([1]; 17.5 mg/kg): 1.06 ± 0.31 mg/g | Spleen index ([1]; 35 mg/kg): 8.92 ± 1.33 mg/g | Submaxillary gland index ([1]; 35 mg/kg): 3.32 ± 0.66 mg/g | Thymus index ([1]; 35 mg/kg): 1.31 ± 0.42 mg/g | Spleen index ([1]; 70 mg/kg): 8.51 ± 1.42 mg/g | Submaxillary gland index ([1]; 70 mg/kg): 3.24 ± 0.57 mg/g | Thymus index ([1]; 70 mg/kg): 1.03 ± 0.44 mg/g | Increasing of submaxillary gland index (in words) ([1]; Example 2): significantly suppress the increasing | Ratio of spleen CD4+ IL-17A+ Th17 lymphocytes [2]: significantly inhibit | Saliva amount in SS mice, One week after administration ([3]; 17.5 mg/kg): 17.83 ± 2.14 mg/each mouse/10 min | Saliva amount in SS mice, Two weeks after administration ([3]; 17.5 mg/kg): 17.67 ± 2.07^ mg/each mouse/10 min | Saliva amount in SS mice, One week after administration ([3]; 35 mg/kg): 18.33 ± 1.97 mg/each mouse/10 min | Saliva amount in SS mice, Two weeks after administration ([3]; 35 mg/kg): 23.17 ± 2.64 mg/each mouse/10 min | Saliva amount in SS mice, One week after administration ([3]; 70 mg/kg): 25.67 ± 1.63 mg/each mouse/10 min | Saliva amount in SS mice, Two weeks after administration ([3]; 70 mg/kg): 26.83 ± 1.47 mg/each mouse/10 min | Saliva amount in SS mice, Pre-administration ([3]; dose group 17.5 mg/kg): 22.67 ± 3.27 mg/each mouse/10 min | Saliva amount in SS mice, Pre-administration ([3]; dose group 35 mg/kg): 23.01 ± 2.37 mg/each mouse/10 min | Saliva amount in SS mice, Pre-administration ([3]; dose group 70 mg/kg): 22.75 ± 3.67 mg/each mouse/10 min | Saliva amount, One week after [3, 5]: 17.83 ± 2.14 mg/10 min | Saliva amount, Two weeks after [3, 5]: 17.67 ± 2.07^ mg/10 min | Saliva amount, One week after [3, 6]: 18.33 ± 1.97 mg/10 min | Saliva amount, Two weeks after [3, 6]: 23.17 ± 2.64 mg/10 min | Saliva amount, One week after ([3]; SS model mice, 70 mg/kg): 25.67 ± 1.63 mg/10 min | Saliva amount, Two weeks after ([3]; SS model mice, 70 mg/kg): 26.83 ± 1.47 mg/10 min | Saliva amount, Pre-administration ([3]; SS model mice, dose group 17.5 mg/kg by gavage): 22.67 ± 3.27 mg/10 min | Saliva amount, Pre-administration ([3]; SS model mice, dose group 35 mg/kg by gavage): 23.01 ± 2.37 mg/10 min | Saliva amount, Pre-administration ([3]; SS model mice, dose group 70 mg/kg): 22.75 ± 3.67 mg/10 min | Curative effect judged on saliva amount after one week of medication ([3]; SS model mice, high dose of CP-25, TGP, Pae, HCQ at the doses of Table 3): had curative effects | Efficacy judged on saliva amount with medication extended to two weeks ([3]; SS model mice, two weeks of medication): more significant efficacy | Saliva amount (in words) ([3]; Sjögren's syndrome mice, Example 1): significantly increase | Onset time of curative effects versus comparators ([3]; Sjögren's syndrome mice, Example 1, saliva amount): earlier than that of TGP, Pae or HCQ | Ratio of CD4+ IL-17A+ Th17 lymphocytes [4]: significantly inhibit
